Assay results: patent US20050282818A1, “Ubiquitin ligase inhibitors” (Rigel Pharmaceuticals, Inc., priority 2004, published 2005)
pIC50: −log10 of the molar value. Like-named read-outs stand apart in the source and are kept apart here.

Tests used:
H1299 cells = assay: Cell proliferation PAD assay, H1299; format: cell-based; conditions: Homo sapiens, 48 hours
Method: (§1) Cell lines used are available from American Type Culture Collection (ATCC), for example, cell cultures containing A549 (ATCC# CCL-185), HeLa (ATCC# CCL-2), HCT116 ATTC# CCL-247), and H1299 (ATCC# CRL-5803) cells were maintained in T175 flasks following the ATCC recommended media and handling procedures. […] A 20,000 cells/ml solution was made for plating. Cells were plated in black Packard 96 well plates by placing 100 μl per well (2,000 cells per well). […] The definitions of the cell types used are as follows: A549 is lung carcinoma; HI 299 is non-small cell lung carcinoma; HI 155 is non-small cell lung carcinoma; AsPC-1 is pancreatic adenocarcinoma; Caov-3 is ovarian adenocarcinoma; COLO 205 is colorectal adenocarcinoma; DLD-1 colorectal adenocarcinoma; HCT116 is colorectal carcinoma; DU 145 is prostate carcinoma; ES-2 is ovarian clear cell carcinoma; H460 is large cell lung carcinoma; HELA is cervical adenocarcinoma; MIA PaCa-2 is pancreatice carcinoma; OVCAR-3 is ovarian adenocarcinoma; OVCAR8 is ovarian carcinoma; PC3 is prostate adenocarcinoma; SK-OV-3 is ovarian adenocarcinoma; SU86.86 is pancreatic carcinoma; TOV-21G is avarian clear cell carcinoma; U2OS is bone osteosarcoma; is ASPC-I is pancreatic adenocarcinoma; BXPC-3 is pabcreatic adenocarcinoma; HL60 is promyeloblast promyelocytic leukemia; K562 is bone marrow chronic myelogenous leukemia; L1210 is mouse lymphocytic leukemia; MOLT3 is T lymphoblast acute lymphoblastic leukemia; MOLT4 is T lymphoblast acute lymphoblastic leukemia; SW620 is colorectal adenocarcinoma; THP-1 is monocyte acute monocytic leukemia; U937 is histiocytic lymphoma; and UACC-257 is melanoma.
(§2) Compounds and additional media were added 24 hours after cell plating. […] All compound testing was done in duplicate using 6.3 fold dilutions starting with 10 mM. […] Taxol and at least one additional control were run on all plates. Three microliters of the compound master plate were added to deep well blocks containing 750 μl of RPMI media. One hundred microliters were transferred from the compound/media deep well blocks to the plated cells resulting in a 500 fold dilution of the compounds. Cells were grown at 37° C., 5% CO2 for 48 hours.
(§3) Cells to be analyzed by photography were fixed and stained. One hundred microliters of media were removed and 100 μl of 9.3% formamide was added to each well. Plates were left on the benchtop for 45 minutes. A staining solution containing 1.55 μl of 1 mg/ml DAPI added to 18.75 ml PBS was warmed for 15 minutes at 37° C. The cells were aspirated prior to washing with 100 μl of PBS. Seventy microliters of PBS were aspirated and 170 μl of the DAPI solution were added to each well of fixed cells. Plates were left at room temperature for one hour then aspirated and washed twice with 100 μl of PBS. The stained cells were left at 4° C. for a minimum of 16 hours before photographic analysis with Array Scan II (Cellomics). Analysis of the photographic images to determine numbers of live cells (proliferation), apoptotic cells and dead cells, were according to the methods described in U.S. Utility patent application Ser. No. 10/652,440, which incorporated herein in its entirety.

A549 cells = assay: Cell proliferation PAD assay, A549; format: cell-based; conditions: Homo sapiens, 48 hours
Method: as §1, §2, §3

[1] = NCI-H1299, 3pt, read-out: H1299 3pt
[2] = NCI-H1299, 6pt, read-out: H1299 6pt

Row | pIC50 (H1299 cells; [1]) | pIC50 (A549 cells; 3pt, read-out: A549 3pt) | pIC50 (H1299 cells; [2]) | pIC50 (A549 cells; 6pt, read-out: A549 6pt) | SMILES
1 | ≤ 4.70 | ≤ 4.70 |  |  | Cc1ccc(NS(=O)(=O)c2cccc3nonc23)c(Cl)c1 [compound 54, N-(2-chloro-4-methylphenyl)-2,1,3-benzoxadiazole-4-sulfonamide]
2 | ≤ 4.70 | ≤ 4.70 |  |  | O=S(=O)(NCc1ccccn1)c1cccc2nonc12 [compound 49, N-(pyridin-2-ylmethyl)-2,1,3-benzoxadiazole-4-sulfonamide]
3 | ≤ 4.70 | 4.70 to 6.00 |  |  | O=S(=O)(Nc1cccc(Cl)c1)c1cccc2nonc12 [compound 43, N-(3-chlorophenyl)-2,1,3-benzoxadiazole-4-sulfonamide]
4 | ≤ 4.70 | ≤ 4.70 |  |  | O=S(=O)(Nc1cc(Cl)ccc1Cl)c1cccc2nonc12 [compound 60, N-(2,5-dichlorophenyl)-2,1,3-benzoxadiazole-4-sulfonamide]
5 |  |  | ≤ 4.70 | ≤ 4.70 | CC(C)(C)c1ccc(-c2cc(Cl)c3nonc3c2)cc1 [compound 329, 4-Chloro-6-(4-(tert-butyl)phenyl)-2,1,3-benzoxadiazole]
6 | 4.70 to 6.00 | 4.70 to 6.00 |  |  | Cc1cc2cc(NS(=O)(=O)c3cccc4nonc34)ccc2[nH]1 [compound 24, N-(2-methyl-1H-indol-5-yl)-2,1,3-benzoxadiazole-4-sulfonamide]
7 | ≤ 4.70 | ≤ 4.70 |  |  | O=[N+]([O-])c1ccc(NS(=O)(=O)c2cccc3nonc23)cc1 [compound 65, N-(4-nitrophenyl)-2,1,3-benzoxadiazole-4-sulfonamide]
8 | ≤ 4.70 | ≤ 4.70 |  |  | O=S(=O)(Nc1ccc(F)c(Cl)c1)c1cccc2nonc12 [compound 14, N-(3-chloro-4-fluorophenyl)-2,1,3-benzoxadiazole-4-sulfonamide]
9 | ≤ 4.70 | ≤ 4.70 |  |  | O=S(=O)(c1cccc2nonc12)N1CCN(c2cccc(C(F)(F)F)c2)CC1 [compound 125, 4({4-[3-(trifluoromethyl)phenyl]piperazin-1-yl}sulfonyl)-2,1,3-benzoxadiazole]
10 |  |  | ≤ 4.70 | ≤ 4.70 | Cc1cc(C)cc(-c2cc(-c3cc(C)cc(C)c3)c3nonc3c2)c1 [compound 323, 4,6-bis[3,5-(dimethyl)phenyl]-2,1,3-benzoxadiazole]
11 | ≤ 4.70 | ≤ 4.70 |  |  | Cc1cc(NS(=O)(=O)c2cccc3nonc23)ccc1I [compound 18, N-(4-iodo-3-methylphenyl)-2,1,3-benzoxadiazole-4-sulfonamide]
12 | ≤ 4.70 | ≤ 4.70 |  |  | O=S(=O)(Nc1ccccc1I)c1cccc2nonc12 [compound 57, N-(2-iodophenyl)-2,1,3-benzoxadiazole-4-sulfonamide]
13 | ≤ 4.70 | ≤ 4.70 |  |  | O=S(=O)(Nc1cccc2nsnc12)c1ccc(F)cc1Br [compound 77, N-2,1,3-benzothiadiazol-4-yl-2-bromo-4-fluorobenzenesulfonamide]
14 | ≤ 4.70 | ≤ 4.70 |  |  | O=S(=O)(c1cccc2nonc12)N1CCN(c2ccccn2)CC1 [compound 123, 4-[(4-Pyridin-2-ylpiperazin-1-yl)-sulfonyl]-2,1,3-benzoxadiazole]
15 |  |  | ≤ 4.70 | ≤ 4.70 | FC(F)(F)c1ccc(-c2cc(Cl)c3nonc3c2)cc1 [compound 327, 4-Chloro-6-[4-(trifluoromethyl)phenyl]-2,1,3-benzoxadiazole]
16 | ≤ 4.70 | ≤ 4.70 |  |  | CC(=O)N1CCN(S(=O)(=O)c2cccc3nonc23)CC1 [compound 128, 4-[(4-acetylpiperazin-1-yl)sulfonyl]-2,1,3-benzoxadiazole]
17 | ≤ 4.70 | ≤ 4.70 |  |  | Cc1ccc(Cl)cc1NS(=O)(=O)c1cccc2nonc12 [compound 56, N-(5-chloro-2-methylphenyl)-2,1,3-benzoxadiazole-4-sulfonamide]
18 | ≤ 4.70 | ≤ 4.70 |  |  | N#Cc1ccccc1S(=O)(=O)Nc1cccc2nsnc12 [compound 100, N-2,1,3-benzothiadiazol-4-yl-2-cyanobenzenesulfonamide]

Row | pIC50 (H1299 cells; [1]) | pIC50 (A549 cells; 3pt, read-out: A549 3pt) | pIC50 (H1299 cells; [2]) | pIC50 (A549 cells; 6pt, read-out: A549 6pt) | SMILES
19 | ≤ 4.70 | ≤ 4.70 |  |  | O=S(=O)(Nc1cccc2nsnc12)c1cccc(Br)c1 [compound 97, N-2,1,3-benzothiadiazol-4-yl-3-bromoberizenesulfonamide]
20 | ≤ 4.70 | ≤ 4.70 |  |  | O=S(=O)(Nc1cccc2nsnc12)c1ccc(CBr)cc1 [compound 98, N-2,1,3-benzothiadiazol-4-yl-4-(bromomethyl)benzenesulfonamide]
21 | ≤ 4.70 | ≤ 4.70 |  |  | COC(=O)c1ccc(C(=O)OC)c(NS(=O)(=O)c2cccc3nonc23)c1 [compound 63, dimethyl 2-[(2,1,3-benzoxadiazol-4-ylsulfonyl)amino]terephthalate]
22 | ≤ 4.70 | ≤ 4.70 |  |  | O=S(=O)(NCCN1CCCC1)c1cccc2nonc12 [compound 55, N-(2-pyrrolidin-1-ylethyl)-2,1,3-benzoxadiazole-4-sulfonamide]
23 |  |  | > 6.00 | 4.70 to 6.00 | O=[N+]([O-])c1ccc(-c2cccc(F)c2)c2nonc12 [compound 320, 7-(3-Fluorophenyl)-4-nitro-2,1,3-benzoxadiazole]
24 | ≤ 4.70 | 4.70 to 6.00 |  |  | O=S(=O)(Nc1cccc2nsnc12)c1cc(F)c(F)c(F)c1 [compound 71, N-2,1,3-benzothiadiazol-4-yl-3,4,5-trifluorobenzenesulfonamide]
25 | ≤ 4.70 | ≤ 4.70 |  |  | O=S(=O)(c1cccc2nonc12)N1CCN(c2ncccn2)CC1 [compound 130, 4-[(4-pyrimidin-2-ylpiperazin-1-yl)sulfonyl]-2,1,3-benzoxadiazole]
26 | ≤ 4.70 | ≤ 4.70 |  |  | O=S(=O)(c1cccc2nonc12)N1CCN(CCN2CCOCC2)CC1 [compound 127]
27 | ≤ 4.70 | ≤ 4.70 |  |  | COc1ccc(NS(=O)(=O)c2cccc3nonc23)cc1 [compound 51, N-(4-methoxyphenyl)-2,1,3-benzoxadiazole-4-sulfonamide]
28 | ≤ 4.70 | ≤ 4.70 |  |  | O=S(=O)(Nc1cccc2nsnc12)c1cc(Cl)c(O)c(Cl)c1 [compound 96, N-2,1,3-benzothiadiazol-4-yl-3,5-dichloro-4-hydroxybenzenesulfonamide]
29 | 4.70 to 6.00 | ≤ 4.70 |  |  | Cc1ccc(C)c(NS(=O)(=O)c2cccc3nonc23)c1 [compound 21, N-(2,5-dimethylphenyl)-2,1,3-benzoxadiazole-4-sulfonamide]
30 | ≤ 4.70 | ≤ 4.70 |  |  | O=S(=O)(Nc1cccc2nsnc12)c1ccc(F)c(Cl)c1 [compound 76, N-2,1,3-benzothiadiazol-4-yl-3-chloro-4-fluorobenzenesulfonamide]
31 | ≤ 4.70 | ≤ 4.70 |  |  | O=S(=O)(Nc1c(F)cc(F)cc1F)c1cccc2nonc12 [compound 16, N-(2,4,6-trifluorophenyl)-2,1,3-benzoxadiazole-4-sulfonamide]
32 |  |  | > 6.00 | > 6.00 | COc1cccc(-c2ccc([N+](=O)[O-])c3nonc23)c1 [compound 319, 7-(3-Methoxyphenyl)-4-nitro-2,1,3-benzoxadiazole]
33 | ≤ 4.70 | ≤ 4.70 |  |  | O=S(=O)(Nc1cccc(F)c1)c1cccc2nonc12 [compound 22, N-(3-fluorophenyl)-2,1,3-benzoxadiazole-4-sulfonamide]
34 |  |  | ≤ 4.70 | ≤ 4.70 | FC(F)(F)c1cccc(-c2cc(Cl)c3nonc3c2)c1 [compound 325, 4-Chloro-6-[3-(trifluoromethyl)phenyl]-2,1,3-benzoxadiazole]
35 | ≤ 4.70 | ≤ 4.70 |  |  | O=C(CN1CCN(S(=O)(=O)c2cccc3nonc23)CC1)N1CCOCC1 [compound 129, 4-{[4-(2-morpholin-4-yl-2-oxoethyl)piperazin-1-yl]sulfonyl}-2,1,3-benzoxadiazole]
36 |  |  | ≤ 4.70 | ≤ 4.70 | Cc1cccc(-c2cc(Cl)c3nonc3c2)c1 [compound 326, 4-Chloro-6-(3-methylphenyl)-2,1,3-benzoxadiazole]
